Like-named read-outs stand apart in the source and are kept apart here.
Legend:
[1] = tested on: Puccinia recondita f. sp. tritici; experiment: Test G: wheat leaf rust, spray after inoculation (curative) on wheat seedlings, visual disease rating; format: in vivo; details: sprayed after inoculation, 100 = 100% disease control, 0 = no disease control
Excerpt: A hyphen (-) indicates no test results.

Botrytis cinerea = experiment: Test A: tomato Botrytis, preventive spray on tomato seedlings, visual disease rating; details: Botrytis cinerea, in Solanum lycopersicum, read-out: Test A rating (disease control), tomato Botrytis; 100 = 100% disease control, 0 = no disease control relative to the controls
[2] = tested on: Blumeria graminis f. sp. tritici; experiment: Test K (K1-K5): wheat powdery mildew, Compound 81 alone and in mixtures, observed and Colby expected control; format: in vivo; details: for Test K4 Obsd, disease control rating / Test K5 Obsd, disease control rating: wheat powdery mildew
[3] = tested on: Puccinia recondita f. sp. tritici; experiment: Test H: wheat leaf rust, preventive spray on wheat seedlings, visual disease rating; details: read-out: Test H rating (disease control), wheat leaf rust, sprayed the day before inoculation; 100 = 100% disease control, 0 = no disease control
Septoria nodorum = experiment: Test E: Septoria glume blotch, preventive spray on wheat seedlings, visual disease rating; details: Parastagonospora nodorum, in Triticum aestivum, read-out: Test E rating (disease control), Septoria glume blotch; 100 = 100% disease control, 0 = no disease control relative to the controls
Septoria tritici [4] = experiment: Test M (M1-M5): wheat leaf blotch, Compound 81 alone and in mixtures, observed and Colby expected control; format: in vivo
Phytophthora infestans = experiment: whole plant or invertebrate; format: in vivo; details: Phytophthora infestans, in Solanum lycopersicum, read-out: Test C rating (disease control)
Alternaria solani = experiment: Test B: tomato early blight, preventive spray on tomato seedlings, visual disease rating; details: Alternaria solani, in Solanum lycopersicum, read-out: Test B rating (disease control)
Septoria tritici [5] = experiment: Tests N1 and N2: growth inhibition of Septoria tritici on solid medium in 96-well plates, absorbance at 600 nm, observed and Colby expected; format: cell-based; details: Zymoseptoria tritici; for inhibition at 0.00032 µM: Compound 81 alone 0.00032 μM; for inhibition at 0.0016 µM: Compound 81 alone 0.0016 μM; for inhibition at 0.008 µM: Compound 81 alone 0.008 μM; for inhibition at 0.04 µM: Compound 81 alone 0.04 μM; for inhibition at 0.2 µM: Compound 81 alone 0.2 μM
Excerpt: Tests N1 and N2 involved evaluation of mixtures of Compound 81 with 2-[(3-bromo-8-methyl-6-quinolinyl)oxy]-N-(1,1-dimethyl-2-propyn-1-yl)-2-(methylthio)acetamide (Compound A1) and 2-[(3-bromo-6-quinolinyl)oxy]-N-(1,1-dimethylethyl)butanamide (Compound A2), respectively, for inhibiting the growth of Septoria tritici (the causal agent of wheat leaf blotch). The general protocol for preparing test compositions was as follows. Compound 81 (Tests N1 and N2), Compound A1 (Test N1) and Compound A2 (Test N2) were obtained as unformulated, technical-grade materials. Unformulated test compounds were first dissolved in DMSO at the appropriate concentration to provide the desired concentration (in μM) after mixing with the fungal growth medium in the wells of 96-well plates containing 200 μL fungal growth medium per well. The ranges of compound concentrations were chosen to span a range of inhibitory activity from 0 to near 100% to identify any synergistic action when Septoria tritici was treated with compounds added in combination. The DMSO solutions of the test compounds were added to the wells prior to addition of the fungal growth medium.
The fungal growth solid medium was prepared by forming an aqueous mixture containing dipotassium hydrogen phosphate (3.0 g/L), potassium dihydrogen phosphate (4.0 g/L), sodium chloride (0.5 g/L), ammonium chloride (1.0 g/L), magnesium sulfate heptahydrate ([…]) and calcium chloride dihydrate (0.01 g/L), also containing 1 mL/L of a trace element solution (manganese sulfate hydrate (0.1 mg/mL), zinc sulfate heptahydrate (0.2 mg/mL), copper(II) sulfate pentahydrate (0.2 mg/mL), iron(II) sulfate heptahydrate (0.2 mg/mL), sodium molybdate dihydrate (0.1 mg/mL), cobalt(II) sulfate heptahydrate (0.06 mg/mL), boric acid (0.08 mg/mL)), and supplemented with 50 μL/L of a biotin stock solution (0.1 mg/mL). The pH was adjusted to 6.8 with aqueous 1 M sodium carbonate solution. The mixture was further supplemented with 1 g/L of yeast extract, and GELRITE gellan gum (Kelco) (4 g/L) was added. Sufficient water was added to bring the volume to 90% of final volume (e.g., 900 mL volume for preparation of 1 L of fungal growth medium). The mixture was autoclaved. On cooling to 60° C., 100 mL/L of aqueous dextrose solution (10 g/L), 500 μL/L of aqueous ampicillin solution (100 mg/mL) and 500 μL/L of rifampicin solution (10 mg/mL in DMSO) were added to provide the final volume of fungal growth medium, which was then dispensed while still warm using a microliter pipette to the wells of the 96-well plates. The dispensed fungal growth medium in each well was agitated using the tip of the dispensing pipette to mix it with the DMSO solution containing the test compounds.
After the fungal growth medium in the wells had cooled to room temperature and solidified, the top surface of the growth medium in each well was inoculated with 20 μL of a suspension of fungus containing 8×10^4 cells. Following a 2 h period of drying in a sterile hood, plates were placed in a dark incubator at 25° C. for 5 d.
Fungal growth was assessed on a plate reader set to measure absorbance of 600 nm light. The percent growth inhibition observed (Obsd.) in Tests N1 and N2, as well as the percent growth inhibition expected (Exp.) from calculation using the Colby equation, are listed in Tables L and M, respectively.

[6] = read-out: % inhibition Obsd. (Test N1)
[7] = read-out: % inhibition Obsd. (Test N2)

Which pest or weed control at 200 µg/mL [1] does the source give for `Cc1nn(C)c(Nc2c(F)cc(Cl)cc2F)c1-c1ccc(F)cc1Cl` [Compound 81, N-(4-chloro-2,6-difluorophenyl)-4-(2-chloro-4-fluorophenyl)-1,3-dimethyl-1H-pyrazole-5-amine] here?
Its pest or weed control at 200 µg/mL is 99%.

And the pest or weed control at 200 µg/mL (Botrytis cinerea)?
Its pest or weed control at 200 µg/mL is 100%.

And the “Test K1 Obsd” value ([2]; Compound 81 1 ppm alone)?
The value was 0%.

What about the “Test K2 Obsd” value ([2]; Compound 81 1 ppm alone) of the same compound?
The value was 91%.

What about the “Test K3 Obsd” value ([2]; Compound 81 1 ppm alone) of the same compound?
Its value is 0%.

What about the “Test K1 Obsd” value ([2]; Compound 81 2 ppm alone) of the same compound?
The value was 87%.

And the “Test K2 Obsd” value ([2]; Compound 81 2 ppm alone)?
Its value is 91%.

What about the “Test K3 Obsd” value ([2]; Compound 81 2 ppm alone) of the same compound?
Its value is 0%.

What about the “Test K1 Obsd” value ([2]; Compound 81 5 ppm alone) of the same compound?
The value was 99%.

And the “Test K2 Obsd” value ([2]; Compound 81 5 ppm alone)?
Its value is 91%.

What about the “Test K3 Obsd” value ([2]; Compound 81 5 ppm alone) of the same compound?
Its value is 90%.

And the “Test K1 Obsd” value ([2]; Compound 81 10 ppm alone)?
Its value is 100%.

And the “Test K2 Obsd” value ([2]; Compound 81 10 ppm alone)?
Its value is 100%.

And the “Test K3 Obsd” value ([2]; Compound 81 10 ppm alone)?
The value was 99%.

And the “Test K4 Obsd, disease control rating” value ([2]; Compound 81 1 ppm alone)?
Its value is 0%.

And the “Test K5 Obsd, disease control rating” value ([2]; Compound 81 1 ppm alone)?
The value was 0%.

And the “Test K4 Obsd, disease control rating” value ([2]; Compound 81 2 ppm alone)?
Its value is 0%.

And the “Test K5 Obsd, disease control rating” value ([2]; Compound 81 2 ppm alone)?
The value was 0%.

What about the “Test K4 Obsd, disease control rating” value ([2]; Compound 81 5 ppm alone) of the same compound?
Its value is 0%.

And the “Test K5 Obsd, disease control rating” value ([2]; Compound 81 5 ppm alone)?
Its value is 0%.

And the “Test K5 Obsd, disease control rating” value ([2]; Compound 81 10 ppm alone)?
The value was 100%.

And the pest or weed control at 200 µg/mL [3]?
The pest or weed control at 200 µg/mL was 100%.

What about the pest or weed control at 200 µg/mL (Septoria nodorum) of the same compound?
The pest or weed control at 200 µg/mL was 90%.

What about the “Test M1 Obsd, disease control rating” value (Septoria tritici [4]; Compound 81 0.01 ppm alone) of the same compound?
The value was 0%.

And the “Test M2 Obsd, disease control rating” value (Septoria tritici [4]; Compound 81 0.01 ppm alone)?
The value was 0%.

And the “Test M1 Obsd, disease control rating” value (Septoria tritici [4]; Compound 81 0.1 ppm alone)?
The value was 0%.

What about the “Test M2 Obsd, disease control rating” value (Septoria tritici [4]; Compound 81 0.1 ppm alone) of the same compound?
The value was 0%.

And the “Test M1 Obsd, disease control rating” value (Septoria tritici [4]; Compound 81 1 ppm alone)?
The value was 86%.

And the “Test M2 Obsd, disease control rating” value (Septoria tritici [4]; Compound 81 1 ppm alone)?
Its value is 95%.

What about the “Test M1 Obsd, disease control rating” value (Septoria tritici [4]; Compound 81 10 ppm alone) of the same compound?
The value was 100%.

And the “Test M2 Obsd, disease control rating” value (Septoria tritici [4]; Compound 81 10 ppm alone)?
Its value is 100%.

And the “Test M3 Obsd disease control rating” value (Septoria tritici [4]; Compound 81 alone 0.01 ppm)?
Its value is 0%.

What about the “Test M4 Obsd disease control rating” value (Septoria tritici [4]; Compound 81 alone 0.01 ppm) of the same compound?
Its value is 0%.

And the “Test M5 Obsd disease control rating” value (Septoria tritici [4]; Compound 81 alone 0.01 ppm)?
Its value is 0%.

And the “Test M3 Obsd disease control rating” value (Septoria tritici [4]; Compound 81 alone 0.1 ppm)?
The value was 0%.

What about the “Test M4 Obsd disease control rating” value (Septoria tritici [4]; Compound 81 alone 0.1 ppm) of the same compound?
The value was 23%.

What about the “Test M5 Obsd disease control rating” value (Septoria tritici [4]; Compound 81 alone 0.1 ppm) of the same compound?
Its value is 3%.

What about the “Test M3 Obsd disease control rating” value (Septoria tritici [4]; Compound 81 alone 1 ppm) of the same compound?
Its value is 52%.

What about the “Test M4 Obsd disease control rating” value (Septoria tritici [4]; Compound 81 alone 1 ppm) of the same compound?
Its value is 66%.

And the “Test M5 Obsd disease control rating” value (Septoria tritici [4]; Compound 81 alone 1 ppm)?
Its value is 90%.

What about the “Test M3 Obsd disease control rating” value (Septoria tritici [4]; Compound 81 alone 10 ppm) of the same compound?
The value was 100%.

And the “Test M4 Obsd disease control rating” value (Septoria tritici [4]; Compound 81 alone 10 ppm)?
The value was 100%.

And the “Test M5 Obsd disease control rating” value (Septoria tritici [4]; Compound 81 alone 10 ppm)?
The value was 100%.

And the pest or weed control at 200 µg/mL (Phytophthora infestans)?
Its pest or weed control at 200 µg/mL is 0%.

And the pest or weed control at 200 µg/mL (Alternaria solani)?
The pest or weed control at 200 µg/mL was 99%.

And the inhibition at 0.00032 µM (Septoria tritici [5]; [6])?
The inhibition at 0.00032 µM was 9%.

What about the inhibition at 0.00032 µM (Septoria tritici [5]; [7]) of the same compound?
Its inhibition at 0.00032 µM is 0%.

And the inhibition at 0.0016 µM (Septoria tritici [5]; [6])?
The inhibition at 0.0016 µM was 5%.

And the inhibition at 0.0016 µM (Septoria tritici [5]; [7])?
The inhibition at 0.0016 µM was 0%.

What about the inhibition at 0.008 µM (Septoria tritici [5]; [6]) of the same compound?
Its inhibition at 0.008 µM is 10%.

What about the inhibition at 0.008 µM (Septoria tritici [5]; [7]) of the same compound?
The inhibition at 0.008 µM was 29%.

And the inhibition at 0.04 µM (Septoria tritici [5]; [6])?
The inhibition at 0.04 µM was 93.5%.

And the inhibition at 0.04 µM (Septoria tritici [5]; [7])?
Its inhibition at 0.04 µM is 93.5%.

What about the inhibition at 0.2 µM (Septoria tritici [5]; [6]) of the same compound?
The inhibition at 0.2 µM was 98%.

And the inhibition at 0.2 µM (Septoria tritici [5]; [7])?
The inhibition at 0.2 µM was 96%.

Source: US20170150719A1, “FUNGICIDAL PYRAZOLES AND THEIR MIXTURES” (E I DU PONT DE NEMOURS AND COMPANY, priority 2010, published 2017)
